According to patent publication US20220132846A1, “1-PYRIDYL-PYRAZOLYL AMIDE COMPOUNDS AND PREPARATION AND USES THEREOF” (HUNAN RESEARCH INSTITUTE OF CHEMICAL INDUSTRY CO., LTD., priority 2019, published 2022):
Read-outs that look alike come from different tables or passages of the source.

Legend:
Aphis fabae = test: Test against aphid, leaf dip method (Aphis fabae); type: in vivo; settings: foliar; for mortality at 12.5 µg/mL / mortality at 50 µg/mL / mortality at 200 µg/mL / mortality at 500 µg/mL: read-out: Activity (mortality) level against Aphis fabae; for LC50: read-out: LC50 against Aphis fabae
Method: For evaluating the activity of the compounds of this invention against Homoptera pests, Aphis fabae, wheat aphids, etc. were selected as the test insects, and the activity of the compounds of this invention against aphids was measured by leaf dip method indoors.
Leaf dip method (Aphis fabae): the test compound was dissolved in an appropriate solvent such as N,N-dimethylformamide, and then diluted with 0.2% aqueous solution of Tween 80 to the desired concentration, Those without the test compounds were set as blank controls, the treatments were replicated 3 times. Horsebean seedlings with no less than twenty 3-day-old Aphis fabae per plant was cut from the stem, 5 horsebean seedlings with the insects were dipped in the test solution for 5 seconds, then inserted into a sponge filled with water after sucked dry using filter paper, then covered with a glass tube and placed in a chamber for culture. After 24 hours, the number of living and dead insects were investigated and the results were averaged. […]

[1] = tested on: Armyworm (Mythimna separata (Walker)); test: Test against armyworm, Potter tower method; type: in vivo; settings: Mythimna separata, read-out: Activity (mortality) level against armyworm
Method: Potter tower method: the test compound was dissolved in an appropriate solvent such as N,N-dimethylformamide, and then diluted with 0.2% aqueous solution of Tween 80 to the desired concentration, Those without the test compounds were set as blank controls. The fresh and tender corn leaves were taken and cut into fragments of basically the same size, then put into a Petri dish (diameter 90 mm) padded with filter paper in advance. Ten third-instar larvae of test insects were transferred into the dish and then placed under the Potter spray tower for being sprayed, each concentration treatment was sprayed at the amount of 1 mL and replicated 3 times. The dish was covered and then placed in a chamber for culture and observed regularly, after 72 hours, the dead insects was investigated and recorded and the mean mortality was calculated. […]

[2] = 500 mg/L, third-instar larvae, after 72 hours
[3] = 50 mg/L, third-instar larvae, after 72 hours
[4] = 12.5 mg/L, third-instar larvae, after 72 hours

| SMILES | mortality at 12.5 µg/mL (Aphis fabae; 12.5 mg/L, after 24 hours) | mortality at 50 µg/mL (Aphis fabae; 50 mg/L, after 24 hours) | mortality at 200 µg/mL (Aphis fabae; 200 mg/L, after 24 hours) | mortality at 500 µg/mL (Aphis fabae; 500 mg/L, after 24 hours) | mortality at 500 µg/mL [1, 2] | mortality at 50 µg/mL [1, 3] | further results |
| --- | --- | --- | --- | --- | --- | --- | --- |
| CN(C)C(=O)c1cc(Cl)cc(Br)c1N(C)C(=O)c1cc(Br)nn1-c1ncccc1Cl [Compound 31, N-[2-bromo-4-chloro-6-[(dimethylamino)carbonyl]phenyl]-N-methyl-1-(3-chloro-2-pyridinyl)-3-bromo-1H-pyrazole-5-carboxamide] | 90 to 100% | 90 to 100% | 90 to 100% | 90 to 100% | 90 to 100% |  | LC50 (Aphis fabae; further test): < 1 µg/mL |
| CCN(C)C(=O)c1cc(Cl)cc(Cl)c1N(CC)C(=O)c1cc(Br)nn1-c1ncccc1Cl [Compound 18, N-[2,4-dichloro-6-[(methyl(ethyl)amino)carbonyl]phenyl]-N-ethyl-1-(3-chloro-2-pyridinyl)-3-bromo-1H-pyrazole-5-carboxamide] | 90 to 100% | 90 to 100% | 90 to 100% | 90 to 100% | 90 to 100% | 90 to 100% |  |
| CN(C)C(=S)c1cc(Cl)cc(Cl)c1N(C)C(=O)c1cc(Br)nn1-c1ncccc1Cl [Compound 21, N-[2,4-dichloro-6-[(dimethylamino)thioxomethyl]phenyl]-N-methyl-1-(3-chloro-2-pyridinyl)-3-bromo-1H-pyrazole-5-carboxamide] | 90 to 100% | 90 to 100% | 90 to 100% | 90 to 100% | 90 to 100% | 90 to 100% |  |
| CCN(CC)C(=O)c1cc(Br)cc(C)c1N(CC)C(=O)c1cc(Br)nn1-c1ncccc1Cl [Compound 49, N-[2-methyl-4-bromo-6-[(diethylamino)carbonyl]phenyl]-N-ethyl-1-(3-chloro-2-pyridinyl)-3-bromo-1H-pyrazole-5-carboxamide] |  |  | 90 to 100% | 90 to 100% | 90 to 100% | 90 to 100% |  |
| CCN(CC)C(=S)c1cc(Cl)cc(Cl)c1N(C)C(=S)c1cc(Br)nn1-c1ncccc1Cl [Compound 24, N-[2,4-dichloro-6-[(diethylamino)thioxomethyl]phenyl]-N-methyl-1-(3-chloro-2-pyridinyl)-3-bromo-1H-pyrazole-5-carbothioamide] |  |  | 90 to 100% | 90 to 100% | 90 to 100% | 90 to 100% |  |
| CCCCNC(=O)c1cc(Cl)cc(Br)c1N(C)C(=O)c1ccnn1-c1ncccc1Cl [Compound 30, N-[2-bromo-4-chloro-6-[(butylamino)carbonyl]phenyl]-N-methyl-1-(3-chloro-2-pyridinyl)-1H-pyrazole-5-carboxamide] |  |  | 90 to 100% | 90 to 100% | 90 to 100% |  |  |
| CCNC(=O)c1cc(Cl)cc(C)c1N(C)C(=O)c1cc(Br)nn1-c1ncccc1Cl [Compound 43, N-[2-methyl-4-chloro-6-[(ethylamino)carbonyl]phenyl]-N-methyl-1-(3-chloro-2-pyridinyl)-3-bromo-1H-pyrazole-5-carboxamide] |  |  |  | 90 to 100% | 90 to 100% | 90 to 100% |  |
| CCNC(=O)c1cc(Cl)cc(Br)c1N(C)C(=O)c1cc(Br)nn1-c1ncccc1Cl [Compound 26, N-[2-bromo-4-chloro-6-[(ethylamino)carbonyl]phenyl]-N-methyl-1-(3-chloro-2-pyridinyl)-3-bromo-1H-pyrazole-5-carboxamide] | 90 to 100% | 90 to 100% | 90 to 100% | 90 to 100% | 90 to 100% | 90 to 100% | mortality at 12.5 µg/mL [1, 4]: 90 to 100% |
| CCN(CC)C(=O)c1cc(Cl)cc(Br)c1N(C)C(=O)c1cc(Br)nn1-c1ncccc1Cl [Compound 37, N-[2-bromo-4-chloro-6-[(diethylamino)carbonyl]phenyl]-N-methyl-1-(3-chloro-2-pyridinyl)-3-bromo-1H-pyrazole-5-carboxamide] | 90 to 100% | 90 to 100% | 90 to 100% | 90 to 100% | 90 to 100% | 90 to 100% | mortality at 12.5 µg/mL [1, 4]: 90 to 100% |
| CCCN(CCC)C(=O)c1cc(Cl)cc(Cl)c1N(C)C(=O)c1cc(Br)nn1-c1ncccc1Cl [Compound 16, N-[2,4-dichloro-6-[(dipropylamino)carbonyl]phenyl]-N-methyl-1-(3-chloro-2-pyridinyl)-3-bromo-1H-pyrazole-5-carboxamide] | 90 to 100% | 90 to 100% | 90 to 100% | 90 to 100% | 90 to 100% | 90 to 100% |  |
| Cc1cc(Cl)cc(C(=O)N(C)C)c1N(C)C(=O)c1cc(Br)nn1-c1ncccc1Cl [Compound 44, N-[2-methyl-4-chloro-6-[(dimethylamino)carbonyl]phenyl]-N-methyl-1-(3-chloro-2-pyridinyl)-3-bromo-1H-pyrazole-5-carboxamide] |  |  |  | 90 to 100% | 90 to 100% | 90 to 100% |  |
| CCCN(C(=O)c1cc(Br)nn1-c1ncccc1Cl)c1c(Cl)cc(Cl)cc1C(=O)N(C)C [Compound 19, N-[2,4-dichloro-6-[(dimethylamino)carbonyl]phenyl]-N-propyl-1-(3-chloro-2-pyridinyl)-3-bromo-1H-pyrazole-5-carboxamide] | 90 to 100% | 90 to 100% | 90 to 100% | 90 to 100% | 90 to 100% | 90 to 100% |  |
| CNC(=O)c1cc(Cl)cc(Br)c1N(C)C(=O)c1cc(Br)nn1-c1ncccc1Cl [Compound 25, N-[2-bromo-4-chloro-6-[(methylamino)carbonyl]phenyl]-N-methyl-1-(3-chloro-2-pyridinyl)-3-bromo-1H-pyrazole-5-carboxamide] | 90 to 100% | 90 to 100% | 90 to 100% | 90 to 100% | 90 to 100% | 90 to 100% | mortality at 12.5 µg/mL [1, 4]: 90 to 100% |
| CCCNC(=O)c1cc(Cl)cc(Cl)c1N(C)C(=O)c1cc(Br)nn1-c1ncccc1Cl [Compound 3, N-[2,4-dichloro-6-[(propylamino)carbonyl]phenyl]-N-methyl-1-(3-chloro-2-pyridinyl)-3-bromo-1H-pyrazole-5-carboxamide] | 90 to 100% | 90 to 100% | 90 to 100% | 90 to 100% | 90 to 100% | 90 to 100% | mortality at 12.5 µg/mL [1, 4]: 90 to 100% |
| CC(NC(=O)c1cc(Cl)cc(Br)c1NC(=O)c1cc(Br)nn1-c1ncccc1Cl)C1CC1 (centres unmarked) [Compound D3, cyclaniliprole, reference compound] |  |  |  |  |  |  | mortality at 12.5 µg/mL (Aphis fabae; 24 h): 90 to 100%; mortality at 50 µg/mL (Aphis fabae; 24 h): 90 to 100%; mortality at 200 µg/mL (Aphis fabae; 24 h): 90 to 100%; mortality at 500 µg/mL (Aphis fabae; 24 h): 90 to 100%; LC50 (Aphis fabae): > 1 µg/mL; mortality at 12.5 µg/mL ([1]; 72 h): 70 to 90%; mortality at 50 µg/mL ([1]; 72 h): 90 to 100%; mortality at 500 µg/mL ([1]; 72 h): 90 to 100% |
| CCCN(C)C(=O)c1cc(Cl)cc(Br)c1N(C)C(=O)c1cc(Br)nn1-c1ncccc1Cl [Compound 33, N-[2-bromo-4-chloro-6-[(methyl(propyl)amino)carbonyl]phenyl]-N-methyl-1-(3-chloro-2-pyridinyl)-3-bromo-1H-pyrazole-5-carboxamide] | 90 to 100% | 90 to 100% | 90 to 100% | 90 to 100% | 90 to 100% | 90 to 100% |  |
| CC(C)N(C)C(=O)c1cc(Cl)cc(Br)c1N(C)C(=O)c1cc(Br)nn1-c1ncccc1Cl [Compound 34, N-[2-bromo-4-chloro-6-[(methyl(isopropyl)amino)carbonyl]phenyl]-N-methyl-1-(3-chloro-2-pyridinyl)-3-bromo-1H-pyrazole-5-carboxamide] | 90 to 100% | 90 to 100% | 90 to 100% | 90 to 100% | 90 to 100% | 90 to 100% | LC50 (Aphis fabae; further test): < 1 µg/mL |
| CCN(C(=O)c1cc(Br)nn1-c1ncccc1Cl)c1c(Cl)cc(Cl)cc1C(=O)N(C)C [Compound 17, N-[2,4-dichloro-6-[(dimethylamino)carbonyl]phenyl]-N-ethyl-1-(3-chloro-2-pyridinyl)-3-bromo-1H-pyrazole-5-carboxamide] | 90 to 100% | 90 to 100% | 90 to 100% | 90 to 100% | 90 to 100% | 90 to 100% | mortality at 12.5 µg/mL [1, 4]: 90 to 100% |
| O=[N+]([O-])/N=C1\NCCN1Cc1ccc(Cl)nc1 [imidacloprid, reference compound] |  |  |  |  |  |  | LC50 (Aphis fabae): < 1 µg/mL |
